According to ChEMBL document CHEMBL4265994, “Design, synthesis, cholinesterase inhibition and molecular modelling study of novel tacrine hybrids with carbohydrate derivatives” (Bioorg Med Chem, 2018):

Tests used:
Acetylcholinesterase = molecular target: T1, Acetylcholinesterase (Mus musculus, UniProt P21836); test: Inhibition of AChE in Swiss Webster mouse cerebral homogenate using acetylthiocholine iodide as substrate preincubated for 10 mins followed substrate addition measured after 10 mins by Ellman's method
T1 sequence (P21836 whole entry): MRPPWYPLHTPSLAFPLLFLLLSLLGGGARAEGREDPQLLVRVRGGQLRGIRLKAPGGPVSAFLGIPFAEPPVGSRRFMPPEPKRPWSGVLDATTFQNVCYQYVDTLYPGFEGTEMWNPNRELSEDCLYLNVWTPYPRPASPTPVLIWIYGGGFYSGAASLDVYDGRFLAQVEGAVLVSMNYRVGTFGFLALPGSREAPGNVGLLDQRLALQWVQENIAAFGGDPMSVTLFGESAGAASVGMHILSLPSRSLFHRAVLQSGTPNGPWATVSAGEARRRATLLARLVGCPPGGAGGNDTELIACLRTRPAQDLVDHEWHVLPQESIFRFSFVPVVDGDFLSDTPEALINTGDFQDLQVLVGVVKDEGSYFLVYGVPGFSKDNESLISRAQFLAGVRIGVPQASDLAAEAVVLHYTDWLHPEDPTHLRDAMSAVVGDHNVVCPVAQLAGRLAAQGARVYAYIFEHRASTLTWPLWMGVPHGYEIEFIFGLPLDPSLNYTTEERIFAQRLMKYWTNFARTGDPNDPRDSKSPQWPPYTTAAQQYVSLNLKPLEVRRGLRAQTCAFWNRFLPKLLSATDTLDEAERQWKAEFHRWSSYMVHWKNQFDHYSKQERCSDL

Cholinesterase = Cholinesterase (Mus musculus, UniProt Q03311); test: Inhibition of BuChE in Swiss Webster mouse whole blood serum using butyrylthiocholine iodide as substrate preincubated for 10 mins followed substrate addition measured after 10 mins by Ellman's method
Chain of Cholinesterase (Q03311 whole entry): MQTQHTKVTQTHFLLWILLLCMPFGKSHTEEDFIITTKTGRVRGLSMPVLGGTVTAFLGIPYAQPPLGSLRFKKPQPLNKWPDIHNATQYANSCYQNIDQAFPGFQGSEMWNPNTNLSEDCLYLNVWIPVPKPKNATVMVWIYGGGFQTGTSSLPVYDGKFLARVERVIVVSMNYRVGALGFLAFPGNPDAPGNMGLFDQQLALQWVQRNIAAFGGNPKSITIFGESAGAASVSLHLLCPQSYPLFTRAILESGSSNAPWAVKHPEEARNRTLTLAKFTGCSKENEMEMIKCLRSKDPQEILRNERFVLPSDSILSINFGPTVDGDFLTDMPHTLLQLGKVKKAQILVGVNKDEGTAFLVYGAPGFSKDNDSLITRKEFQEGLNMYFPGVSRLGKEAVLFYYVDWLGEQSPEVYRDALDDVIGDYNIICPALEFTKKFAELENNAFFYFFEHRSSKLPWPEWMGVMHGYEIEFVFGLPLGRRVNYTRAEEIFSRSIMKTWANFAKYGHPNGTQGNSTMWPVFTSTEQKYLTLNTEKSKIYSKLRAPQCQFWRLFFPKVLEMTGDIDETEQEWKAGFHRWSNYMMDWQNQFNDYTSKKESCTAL

## CC1(C)O[C@H]2[C@@H](O1)[C@@H](CNCCCCCCCCCNc1c3c(nc4ccccc14)CCCC3)O[C@@H]1OC(C)(C)O[C@@H]12
Acetylcholinesterase
  IC50: 7.6 nM
Cholinesterase
  IC50: 26.2 nM

## CC1(C)O[C@H]2O[C@H](CNCCCCCCCCCNc3c4c(nc5ccccc35)CCCC4)[C@H](O)[C@H]2O1
Acetylcholinesterase
  IC50: 10.2 nM
Cholinesterase
  IC50: 30.8 nM

## CO[C@@H]1O[C@H](CNCCCCCCCCNc2c3c(nc4ccccc24)CCCC3)[C@H]2OC(C)(C)O[C@@H]12
Acetylcholinesterase
  IC50: 89.9 nM
Cholinesterase
  IC50: 36.9 nM

## CC1(C)O[C@H]2O[C@H](CNCCCCCCCNc3c4c(nc5ccccc35)CCCC4)[C@H](O)[C@H]2O1
Acetylcholinesterase
  IC50: 84.4 nM
Cholinesterase
  IC50: 11.7 nM

## CO[C@@H]1O[C@H](CNCCCCCCCCCNc2c3c(nc4ccccc24)CCCC3)[C@H]2OC(C)(C)O[C@@H]12
Acetylcholinesterase
  IC50: 65.5 nM
Cholinesterase
  IC50: 64.3 nM

## c1ccc2c(NCCCCCCCNc3c4c(nc5ccccc35)CCCC4)c3c(nc2c1)CCCC3
Acetylcholinesterase
  IC50: 1.9 nM
Cholinesterase
  IC50: 9.1 nM

## CC1(C)O[C@H]2O[C@H](CNCCCCCCNc3c4c(nc5ccccc35)CCCC4)[C@H](O)[C@H]2O1
Acetylcholinesterase
  IC50: 8.7 nM
Cholinesterase
  IC50: 27.6 nM

## CC1(C)O[C@H]2O[C@H](CNCCCCCCCCNc3c4c(nc5ccccc35)CCCC4)[C@H](O)[C@H]2O1
Acetylcholinesterase
  IC50: 5.1 nM
Cholinesterase
  IC50: 25.8 nM

## CC1(C)O[C@H]2O[C@H](CNCCCCCCCCCCNc3c4c(nc5ccccc35)CCCC4)[C@H](O)[C@H]2O1
Acetylcholinesterase
  IC50: 2.2 nM
Cholinesterase
  IC50: 4.93 nM

## CC1(C)O[C@H]2[C@@H](O1)[C@@H](CNCCCCCCCCNc1c3c(nc4ccccc14)CCCC3)O[C@@H]1OC(C)(C)O[C@@H]12
Acetylcholinesterase
  IC50: 4.8 nM
Cholinesterase
  IC50: 36.7 nM
